These results are taken from PMC4579270, “Identification and Characterization of an Irreversible Inhibitor of CDK2” (Chemistry & Biology, 2015).

SMILES strings stand for the structures.

What all share (experiment): Dundee protein kinase screen
Assay type in all cases: biochemical

The target of one test is PKBβ (Homo sapiens, UniProt P31751). The following applies: read-out: %Remaining activity at 1µM NU6300. Here is the method:
(§1) Prior to determining its cellular activity, we carried out a screen to assess its selectivity against a panel of 131 protein kinases under conditions that would not distinguish between a reversible or irreversible mode of action. […] These 13 kinases and 29 additional kinases, selected for their known sensitivity to other inhibitors within the purine series, were then tested in a modified screening format in which the assay was repeated following a 4-hr pre-incubation (Table S3B). […] However, conformational flexibility around the active site may promote such an interaction with a residue from another part of the structure ([Martin et al., 2012]).
(§2) Table S3, Related to Figure 4. NCL-0006300 protein kinase selectivity. (A) NU6300 was tested at a single concentration of 1µM against 131 protein kinases present in a Dundee protein kinase screen (Bain et al., 2007). Values given are % activity remaining and are the average of duplicate measurements: 0-25% (red), 26-50% (yellow), 51-80% […]
(§3) (black) and above 81% (green). […]

The next test concerns the target T1, TBK1 (Homo sapiens, UniProt Q9UHD2).
T1 sequence (Q9UHD2 1-729): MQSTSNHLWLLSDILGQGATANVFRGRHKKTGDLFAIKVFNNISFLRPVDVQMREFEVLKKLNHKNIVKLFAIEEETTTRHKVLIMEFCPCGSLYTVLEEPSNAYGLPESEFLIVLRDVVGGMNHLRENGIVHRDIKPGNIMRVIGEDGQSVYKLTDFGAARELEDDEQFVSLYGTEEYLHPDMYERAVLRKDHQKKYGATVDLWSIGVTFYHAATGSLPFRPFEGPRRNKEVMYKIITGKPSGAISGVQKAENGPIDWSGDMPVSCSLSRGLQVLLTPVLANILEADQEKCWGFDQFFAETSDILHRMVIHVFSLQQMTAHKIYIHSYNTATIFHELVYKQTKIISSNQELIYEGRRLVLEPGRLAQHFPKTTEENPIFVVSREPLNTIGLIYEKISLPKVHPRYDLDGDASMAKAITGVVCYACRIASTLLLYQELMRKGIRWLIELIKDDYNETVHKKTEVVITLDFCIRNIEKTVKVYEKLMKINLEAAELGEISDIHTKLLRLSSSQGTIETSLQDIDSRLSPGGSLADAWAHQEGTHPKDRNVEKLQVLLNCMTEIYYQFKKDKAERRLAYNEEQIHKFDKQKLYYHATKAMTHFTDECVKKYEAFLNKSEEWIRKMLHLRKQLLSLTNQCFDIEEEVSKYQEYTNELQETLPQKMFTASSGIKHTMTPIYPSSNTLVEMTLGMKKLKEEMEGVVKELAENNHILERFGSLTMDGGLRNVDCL
The following applies: TBK1, 1µM; read-out: %Remaining activity at 1µM NU6300. Here is the method: as §1, §2, §3

The next test has as its target WNK1 (Homo sapiens, UniProt Q9H4A3). The following applies: WNK1, 1µM; read-out: %Remaining activity at 1µM NU6300. Here is the method:
as §1, §2, §3

The target in the next test is T2, TTK (Homo sapiens, UniProt P33981).
T2 sequence (P33981 1-857): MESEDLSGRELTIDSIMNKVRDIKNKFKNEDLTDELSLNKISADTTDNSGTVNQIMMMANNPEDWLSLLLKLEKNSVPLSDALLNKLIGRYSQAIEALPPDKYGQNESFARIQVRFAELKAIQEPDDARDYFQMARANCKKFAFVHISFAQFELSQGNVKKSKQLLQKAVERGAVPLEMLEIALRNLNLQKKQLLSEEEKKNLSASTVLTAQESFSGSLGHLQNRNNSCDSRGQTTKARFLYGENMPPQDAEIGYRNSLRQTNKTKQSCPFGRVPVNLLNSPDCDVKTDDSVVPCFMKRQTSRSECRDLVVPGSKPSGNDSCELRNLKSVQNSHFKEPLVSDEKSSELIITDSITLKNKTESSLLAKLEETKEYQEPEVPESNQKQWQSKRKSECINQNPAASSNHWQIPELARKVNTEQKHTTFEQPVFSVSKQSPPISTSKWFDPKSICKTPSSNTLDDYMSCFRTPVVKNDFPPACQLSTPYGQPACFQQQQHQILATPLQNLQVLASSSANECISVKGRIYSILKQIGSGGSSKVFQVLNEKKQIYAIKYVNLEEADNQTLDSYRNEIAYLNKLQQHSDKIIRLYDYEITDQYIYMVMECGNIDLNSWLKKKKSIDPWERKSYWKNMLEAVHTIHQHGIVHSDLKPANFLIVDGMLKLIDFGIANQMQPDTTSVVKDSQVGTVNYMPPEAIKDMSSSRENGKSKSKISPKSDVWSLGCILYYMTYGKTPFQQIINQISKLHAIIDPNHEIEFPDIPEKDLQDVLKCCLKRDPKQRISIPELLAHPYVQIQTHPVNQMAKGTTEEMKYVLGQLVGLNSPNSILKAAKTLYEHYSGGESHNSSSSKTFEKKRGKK
The following applies: read-out: %Remaining activity at 1µM NU6300. Here is the method: as §1, §2, §3

The target in the next test is T3, NUAK1 (Homo sapiens, UniProt O60285).
T3 sequence (O60285 1-661): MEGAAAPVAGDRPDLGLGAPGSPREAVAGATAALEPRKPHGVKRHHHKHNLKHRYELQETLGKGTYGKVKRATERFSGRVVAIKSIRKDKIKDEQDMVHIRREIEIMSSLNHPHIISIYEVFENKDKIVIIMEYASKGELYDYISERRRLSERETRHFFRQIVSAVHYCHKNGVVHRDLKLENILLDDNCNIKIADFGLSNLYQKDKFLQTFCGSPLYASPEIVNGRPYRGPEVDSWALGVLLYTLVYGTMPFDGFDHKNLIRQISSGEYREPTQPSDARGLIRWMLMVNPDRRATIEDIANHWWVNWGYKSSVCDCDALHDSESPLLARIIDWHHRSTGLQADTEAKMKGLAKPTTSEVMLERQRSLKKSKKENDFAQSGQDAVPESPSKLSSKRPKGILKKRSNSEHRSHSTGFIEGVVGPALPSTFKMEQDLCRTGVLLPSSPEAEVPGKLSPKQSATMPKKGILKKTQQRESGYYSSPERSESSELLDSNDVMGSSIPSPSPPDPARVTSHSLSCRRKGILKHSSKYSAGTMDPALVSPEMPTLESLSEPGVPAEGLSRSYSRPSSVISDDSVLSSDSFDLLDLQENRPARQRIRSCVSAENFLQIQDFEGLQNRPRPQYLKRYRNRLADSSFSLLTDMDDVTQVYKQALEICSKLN
The following applies: NUAK1, 1µM; read-out: %Remaining activity at 1µM NU6300. Here is the method:
as §1, §2, §3

For a further test, the system named is PHK. Here is the method: as §1, §2, §3
The next test concerns the target MST3 (Homo sapiens, UniProt Q9Y6E0). The following applies: MST3, 1µM; read-out: %Remaining activity at 1µM NU6300. Here is the method: as §1, §2, §3

Chain of PKBβ (P31751 whole entry): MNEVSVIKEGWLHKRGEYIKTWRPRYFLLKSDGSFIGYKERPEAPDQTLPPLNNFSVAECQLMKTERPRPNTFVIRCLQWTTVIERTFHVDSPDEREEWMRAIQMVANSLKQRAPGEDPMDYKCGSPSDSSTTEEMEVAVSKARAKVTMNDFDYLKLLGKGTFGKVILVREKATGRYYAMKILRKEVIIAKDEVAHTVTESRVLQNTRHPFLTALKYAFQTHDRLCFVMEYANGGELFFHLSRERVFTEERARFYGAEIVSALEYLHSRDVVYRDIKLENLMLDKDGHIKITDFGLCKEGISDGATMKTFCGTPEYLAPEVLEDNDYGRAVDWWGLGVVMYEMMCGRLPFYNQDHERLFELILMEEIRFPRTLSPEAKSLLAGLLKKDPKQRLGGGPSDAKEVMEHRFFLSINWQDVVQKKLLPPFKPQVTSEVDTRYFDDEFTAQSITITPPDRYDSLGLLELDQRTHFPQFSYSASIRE
Chain of WNK1 (Q9H4A3 whole entry): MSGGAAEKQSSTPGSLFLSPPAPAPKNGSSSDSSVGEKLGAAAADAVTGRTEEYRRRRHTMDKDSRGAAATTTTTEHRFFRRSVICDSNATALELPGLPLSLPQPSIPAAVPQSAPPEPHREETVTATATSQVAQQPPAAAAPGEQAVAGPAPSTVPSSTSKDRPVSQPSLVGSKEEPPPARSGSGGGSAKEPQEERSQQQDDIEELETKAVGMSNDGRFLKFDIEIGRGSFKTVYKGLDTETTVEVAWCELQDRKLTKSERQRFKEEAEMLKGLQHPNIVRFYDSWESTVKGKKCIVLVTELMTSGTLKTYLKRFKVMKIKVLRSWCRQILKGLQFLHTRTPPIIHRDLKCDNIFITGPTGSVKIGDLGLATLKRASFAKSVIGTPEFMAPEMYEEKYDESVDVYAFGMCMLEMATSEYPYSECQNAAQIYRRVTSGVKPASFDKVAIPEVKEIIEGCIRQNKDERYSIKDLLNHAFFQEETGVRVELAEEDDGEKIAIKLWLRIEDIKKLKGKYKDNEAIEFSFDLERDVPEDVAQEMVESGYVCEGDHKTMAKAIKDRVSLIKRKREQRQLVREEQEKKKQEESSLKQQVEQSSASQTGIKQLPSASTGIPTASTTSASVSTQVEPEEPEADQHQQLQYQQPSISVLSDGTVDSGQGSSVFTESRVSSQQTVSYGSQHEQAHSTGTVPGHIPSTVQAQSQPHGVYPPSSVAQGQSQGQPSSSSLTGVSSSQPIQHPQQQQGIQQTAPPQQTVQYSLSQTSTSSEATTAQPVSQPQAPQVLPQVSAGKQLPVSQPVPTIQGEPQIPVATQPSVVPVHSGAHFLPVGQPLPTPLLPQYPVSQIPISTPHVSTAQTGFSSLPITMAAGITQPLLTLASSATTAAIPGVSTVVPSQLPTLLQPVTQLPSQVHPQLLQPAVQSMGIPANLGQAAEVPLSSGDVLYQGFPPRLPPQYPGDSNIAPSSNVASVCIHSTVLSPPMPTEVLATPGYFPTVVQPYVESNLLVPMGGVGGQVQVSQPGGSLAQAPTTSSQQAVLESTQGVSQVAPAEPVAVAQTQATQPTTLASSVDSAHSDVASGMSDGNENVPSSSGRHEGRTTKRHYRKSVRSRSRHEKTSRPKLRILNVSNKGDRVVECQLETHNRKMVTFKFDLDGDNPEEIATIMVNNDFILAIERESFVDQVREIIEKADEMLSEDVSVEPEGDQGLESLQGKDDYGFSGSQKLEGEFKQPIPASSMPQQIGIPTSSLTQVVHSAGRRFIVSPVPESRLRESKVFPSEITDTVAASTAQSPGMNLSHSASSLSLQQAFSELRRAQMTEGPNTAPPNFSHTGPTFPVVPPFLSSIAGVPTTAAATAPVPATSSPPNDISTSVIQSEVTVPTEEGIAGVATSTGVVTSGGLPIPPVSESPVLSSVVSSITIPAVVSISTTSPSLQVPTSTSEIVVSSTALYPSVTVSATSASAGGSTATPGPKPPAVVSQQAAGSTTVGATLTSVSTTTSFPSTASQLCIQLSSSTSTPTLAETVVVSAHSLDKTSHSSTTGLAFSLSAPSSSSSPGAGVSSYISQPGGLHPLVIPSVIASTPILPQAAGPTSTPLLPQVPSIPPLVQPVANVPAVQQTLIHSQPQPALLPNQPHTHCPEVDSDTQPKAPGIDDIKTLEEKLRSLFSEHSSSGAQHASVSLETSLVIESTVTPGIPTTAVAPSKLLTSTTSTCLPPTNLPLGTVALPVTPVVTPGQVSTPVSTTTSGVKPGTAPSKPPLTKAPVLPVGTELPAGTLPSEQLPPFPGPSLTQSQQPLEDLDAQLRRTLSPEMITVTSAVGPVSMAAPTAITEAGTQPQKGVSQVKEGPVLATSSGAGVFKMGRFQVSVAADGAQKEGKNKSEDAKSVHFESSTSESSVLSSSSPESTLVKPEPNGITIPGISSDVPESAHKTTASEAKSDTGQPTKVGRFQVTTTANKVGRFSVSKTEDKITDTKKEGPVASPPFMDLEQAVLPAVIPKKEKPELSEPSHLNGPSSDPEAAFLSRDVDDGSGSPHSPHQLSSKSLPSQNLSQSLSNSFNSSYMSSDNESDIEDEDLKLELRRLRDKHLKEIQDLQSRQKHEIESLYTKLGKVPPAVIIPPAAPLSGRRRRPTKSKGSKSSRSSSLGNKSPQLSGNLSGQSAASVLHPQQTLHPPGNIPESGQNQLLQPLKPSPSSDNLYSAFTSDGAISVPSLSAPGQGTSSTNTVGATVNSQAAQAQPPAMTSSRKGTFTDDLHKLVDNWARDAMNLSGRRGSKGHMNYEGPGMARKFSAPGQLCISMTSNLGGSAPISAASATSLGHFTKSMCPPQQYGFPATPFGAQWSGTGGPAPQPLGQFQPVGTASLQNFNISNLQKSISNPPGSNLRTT
Chain of MST3 (Q9Y6E0 whole entry): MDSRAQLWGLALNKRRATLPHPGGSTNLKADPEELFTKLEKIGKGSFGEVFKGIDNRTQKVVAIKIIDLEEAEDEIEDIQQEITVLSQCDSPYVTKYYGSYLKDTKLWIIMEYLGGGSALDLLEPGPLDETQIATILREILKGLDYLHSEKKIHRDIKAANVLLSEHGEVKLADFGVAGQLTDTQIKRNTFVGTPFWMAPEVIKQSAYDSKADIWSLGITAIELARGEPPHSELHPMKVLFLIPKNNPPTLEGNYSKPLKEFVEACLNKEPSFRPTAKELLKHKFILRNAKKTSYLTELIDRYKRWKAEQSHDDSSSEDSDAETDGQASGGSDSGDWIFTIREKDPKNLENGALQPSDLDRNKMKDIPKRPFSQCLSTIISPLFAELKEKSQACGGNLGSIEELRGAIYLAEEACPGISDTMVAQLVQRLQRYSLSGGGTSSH

Consider `C=CS(=O)(=O)c1ccc(Nc2nc(OCC3CCCCC3)c3nc[nH]c3n2)cc1` [NU6300, 6-(cyclohexylmethoxy)-N-(4-(vinylsulfonyl)phenyl)-9H-purin-2-amine], for which the remaining activity (in general, the signal under treatment as a percentage of the control signal) at 1 µM on PKBβ stood at 89%; at TBK1, 45%; on WNK1 it was 103%; at TTK, 29%; on NUAK1, 2%; on MST3 it was 54%. Moreover, the “%Remaining activity at 1µM NU6300” value in the test on PHK came to 69%.
